Series [1] has as its system non-transformed 32D cell line. The note with it: different concentrations.
For series [2], the system named is Molm13.
For series [3], the system named is MLL-AF9/Nras leukemia cells. To be noted: different concentrations.
Series [4] concerns HL60.
For series [5], the system named is Kasumi1.
Series [6] can be described thus: Tolerability of anthracycline in mice. Type of series: in vivo. To be noted: applied intraperitoneally. As for the experimental part: To study factors that influence the outcome of conventional AML therapy in mice, we established a simple chemotherapy regimen involving intraperitoneal injection of cytarabine (100 mg/kg over 5 days) and doxorubicin (3 mg/kg over 3 days; FIG. 36A), which mimics the standard induction therapy used to treat AML in human patients. […] Efficacy and safety of this regimen were initially evaluated in a previously described model based on co-transduction of MLL/ENL and FLT3-ITD (Ono et al. 2005). In order to rapidly generate homogenous treatment cohorts we harvested bone marrow and spleen from terminally ill primary FLC recipient mice and transplanted 1 million leukemia cells into 20-30 secondary recipients. In initial studies, we noted that this combination therapy was not tolerated in mice when treatment was initiated based on a high leukemia burden in the peripheral blood; although the peripheral disease disappeared within two days, animals died shortly thereafter with peripheral leukopenia.

In series [7] the test system is HCT116 cells. Description: siRNA cytotoxicity: reduction in HCT116 culture confluency after transfection. The format is cell-based, human. The note with it: relative to negative control RNAi cultures. The procedure:
siRNAs derived from the shRNAs of Example 2 were all highly cytotoxic to HCT116 cells. The siRNA sequences and shRNAs from which they were derived are shown below
Cytotoxicity was determined by the reduction in culture confluency over time after transfection of the siRNA relative to negative control RNAi cultures.

Series [8] relates to Hepa1.6 cells. Description: In vitro competition assay in Hepa1.6 cells. The format is cell-based, mouse. The note with it: five passages 1:8. The text has this:
Two days after transduction with a GFP-tagged vector, the number of fluorescent cells was quantified. Cells were passaged 1:8 five times, and the number of GFPpositive transduced cells was quantified at each passage.

The subject of series [9] is Mouse hepatocellular carcinoma cells (Hepa1.6). Description: Hepa1.6 colony formation assay. The note with it: high MOI, low density plating, crystal violet. Type of series: cell-based. The procedure: (FIG. 8A) Mouse hepatocellular carcinoma cells (Hepa1.6) were transduced at high MOI with shRNAs targeting replication genes. Cells were plated at low density, stained with crystal violet, and staining was quantified on a Licor scanner. Values are normalized to empty vector control. (FIG. 8B) Representative scans of colony formation assays of cells infected with an antiproliferative shRNA (top—shRpa3.457) or empty vector control (bottom).
An assay similar to that described in Example 1 was used to test the effect of RNAi molecules against genes encoding DNA replication proteins in mouse cancer cells (Hepa1.6). Similar results in mouse cells were observed as compared to human cells (FIG. 8 and FIG. 9). For example, mouse tumors regress upon induction of RNAi against Rpa3 (FIG. 17).

For series [10], the system named is mouse liver carcinoma cells. Description: Subcutaneous liver carcinoma tumor growth after doxycycline induction of shRNA. The format is in vivo, nude mice. To be noted: doxycycline 2 mg/ml in drinking water from two weeks after injection. The procedure:
One million mouse liver carcinoma cells transduced with an inducible shRpa3.457 were injected subcutaneously in nude mice. Two weeks after injection, mice were either treated with doxycycline 2 mg/ml in their drinking water, or left untreated. Change in tumor volumes was measured following treatment.

As for `N[C@@H]1C[C@H]1c1ccccc1` (racemic) [tranylcypromine], the growth entry in [1] is “no impact”; in series [2], “an effect on growth”; in [4], “an effect on growth”; in series [5], “an effect on growth”. Further, in series [3], the proliferation entry is “dose-dependent inhibition”.
Take `COc1cccc2c1C(=O)c1c(O)c3c(c(O)c1C2=O)C[C@@](O)(C(C)=O)C[C@@H]3O[C@H]1C[C@H](N)[C@H](O)[C@H](C)O1` [daunorubicin]: the toxicity entry in [6] is “high toxicity”.
With “RPA3si1417: siRNA CAUCUUAUGUCCAGUUUAA (SEQ ID NO: 1), derived from v2HS_32101 (listed as RNA, chemistry not fully specified)”, in series [7], the “cytotoxicity (reduction in culture confluency over time)” value is “more cytotoxic than RPA3si1403”.

B1: shRpa3.457: shRNA, SEQ ID NO: 60 (nucleic acid)
chain: TGCTGTTGACAGTGAGCGCGCGACTCCTATAATTTCTAATTAGTGAAGCCACAGATGTAATTAGAAATTATAGGAGTCGCTTGCCTACTGCCTCGGA
For the molecule B1, in series [8], the “competition with uninfected GFP-negative cells” value was “outcompeted by uninfected, GFP-negative cells”. Moreover, the “effect on colony formation” value in series [9] is recorded as “antiproliferative”. In addition, the “change in tumor volumes” value in series [10] is on record as “stopped growing or regressed”.

B2: shPCNA.538: shRNA, SEQ ID NO: 56 (nucleic acid)
chain: TGCTGTTGACAGTGAGCGCGGAGTACAGCTGTGTAATAAATAGTGAAGCCACAGATGTATTTATTACACAGCTGTACTCCTTGCCTACTGCCTCGGA
For B2, the “competition with uninfected GFP-negative cells” value in series [8] is listed as “outcompeted by uninfected, GFP-negative cells”.

These data come from US8895526B2, “Identification of RNAI targets and use of RNAI for rational therapy of chemotherapy-resistant leukemia and other cancers” (Cold Spring Harbor Laboratory, priority 2009, dated 2014).
